Source: patent US10047151B2, “Methods for the treatment of cancer and inflammatory diseases using cereblon as a predictor” (Celgene Corporation, priority 2011, dated 2018)

What was measured:
p21^WAF-1 = test: p21WAF-1 mRNA and protein levels in U266B1 cells; format: cell-based; details: U266B1, control mock and negative control siRNA-transfected cells; pomalidomide 1 μM, lenalidomide 10 μM
Protocol: To further investigate the effects of CRBN on the cell cycle arrest induced by drugs we used RT-PCR and Western blot analysis to measure the levels of key cell cycle and apoptotic regulators. U266B1 cells were transfected with mock, negative control siRNA, CRBN-siRNA-7 and CRBN-siRNA-11 for 24, 48, 72 and 96 h (FIG. 3A). Cells were treated 24 h after transfection with DMSO (0.1%), pomalidomide (1 μM) and lenalidomide (10 μM) for 1, 2, 3 days and the effect on mRNA and protein levels of the cyclin-dependent kinase (CDK) inhibitor p21^WAF-1 were evaluated. It has been shown that lenalidomide- and pomalidomide-induced cell cycle arrest is dependent on up-regulation of p21^WAF-1 in […]. […] However, knockdown of CRBN prevents the induction of p21^WAF-1 indicating the successful abrogation of G1 arrest and renewal of S phase progression (FIGS. 3C & 3D).

U266B1 cells = test: Gene expression profile by microarray in U266B1 cells; format: cell-based; details: negative control siRNA-transfected U266B1 cells; pomalidomide 1 μM, lenalidomide 10 μM; ±1.7 fold, P<0.05
Protocol: Gene expression profile using microarray technology identified 759 or 609 genes differentially modulated in negative control siRNA-transfected U266B1 cells treated with pomalidomide (1 μM) or lenalidomide (10 μM) compared to DMSO treated control (±1.7 fold; P<0.05 ANOVA p-value) (FIGS. 5A & 5B).

OCI-Ly10 = test: Apoptosis of DLBCL cells; format: cell-based
Text: In order to define the place of lenalidomide for DLBCL therapy in specific patient populations and to understand the molecular mechanisms of efficacy, a panel of DLBCL cell lines was collected in this study. The DLBCL subtypes of the cell lines were confirmed based on literature information (Lenz G, et al., Proc Natl Acad Sci USA 2008; 105: 13520-5) and molecular analysis, including intracellular NF-κB activity or IRF4 expression, as well as gene expression profiling of key signature genes of activated B cells.

IRF4 = IRF4 protein expression in ABC-DLBCL cells (Western blot); format: cell-based
Protocol: (§1) Cells were treated with test compounds or 0.1% DMSO for indicated times. Following incubation, cells were collected, pelleted with centrifugation, and immediately lysed in 0.1 ml lysis buffer containing 10 mM Tris-HCl pH 8.0, 10 mM EDTA, 150 mM NaCl, 1% NP-40, 0.5% SDS, 1 mM DTT, 1 mM Na3VO4, plus Complete protease inhibitor cocktail (Roche Applied Science, Indianapolis, Ind.), then processed with a Qiashredder™ (Qiagen, Valencia, Calif.) for 1 minute and frozen on dry ice. Samples were diluted with 6×SDS sample buffer and then boiled for 5 min. Approximately 30 μl of this mixture was loaded per lane on a Criterion Precast 4-12% Tris-HCl gel (Bio-Rad, Hercules, Calif.), electrophoresed, and transferred to nitrocellulose membranes (Bio-Rad, Hercules, Calif.). The membranes were blocked for 1 hour at room temperature using blocking buffer (LI-COR Biosciences, Lincoln, Nebr.), then incubated overnight at 4° C. with antibodies against either BCL-10, IRF4, CRBN or β-actin. Membranes were washed and incubated with IRDye Secondary Antibodies (1:30,000) for 1 hour at room temperature. A standard protocol was then followed for signal detection, using the Odyssey® Infrared Imaging System and software (LI-COR Biosciences, Lincoln, Nebr.).
To understand the molecular mechanism of lenalidomide on ABC-DLBCL cells, the effects of lenalidomide on IRF4 expression in these cells were investigated. […] Lenalidomide-induced decrease of IRF4 expression occurred as early as 1 day of drug treatment, with similar kinetics to that of the inhibitors (zVRPR-fmk and LY-333,531, respectively) of MALT1 and PKCβ, two key enzymes involved in NF-κB activation upon BCR engagement in B cells.

[1] = system: CARD11-BCL-10-MALT1 (CBM) complex; test: MALT1-induced BCL-10 cleavage (CBM complex activity) in ABC-DLBCL cells; format: cell-based
Protocol: as §1
This mutation has been reported to cause constitutive formation and activation of CARD11-BCL-10-MALT1 (CBM) complex of BCR signaling pathway, leading to NF-κB overactivation in lymphoma cells. See Lenz, G., et al., Science 2008, 319: 1676-9; Thome, M. et al., Cold Spring Harb Perspect Biol. 2010; 2: a003004. To investigate the potential involvement of CBM complex in lenalidomide-induced IRF4 inhibition in these cells, the effect of lenalidomide on the complex activity was examined by measuring MALT1 paracaspase enzymatic activity. MALT1 is activated upon association with BCL-10 and CARD11 to form active CBM complex and then cleaves its binding partners, such as BCL-10.

OCI-Ly10 DLBCL cells = test: OCI-Ly10 human tumor xenograft model; format: in vivo
Protocol: . A total of 10×10^6 OCI-Ly10 DLBCL cells in 100% Matrigel (Becton Dickinson, San Jose, Calif.) were injected subcutaneously into the right flank of mice. Mice were monitored 2 or 3 times a week for the appearance of tumors. Once the tumors reached an average size of 100-150 mg, 10 mice in each group were treated with either vehicle (0.5% carboxymethyl cellulose: 0.25% Tween 80 in deionized H2O) or indicated doses of lenalidomide (qd×28, p.o.) or the positive control vincristine (q4d×4, i.v.). Mice were monitored daily for health status as well as tumor growth. Tumors of all mice were measured with a digital caliper and volumes calculated with the following formula: tumor volume (mm^3)=length (mm)×width (mm)^2. Mice were killed when tumor size exceeded 1000 mm^3.
To confirm the relevance of lenalidomide-mediated inhibition of NF-κB/IRF4 signaling in vivo in ABC-DLBCL, a subcutaneous OCI-Ly10 xenograft model was established. […] Compared with vehicle control group, lenalidomide treatment for 7 days reduced IRF4 expression and BCL-10 cleavage by 15-35% (p<0.05).

## Nc1cccc2c1CN(C1CCC(=O)NC1=O)C2=O (stereo not shown) [lenalidomide, 3-(4-amino-1-oxo-1,3-dihydro-isoindol-2-yl)-piperidine-2,6-dione]
p21^WAF-1
  p21 level: up-regulated
U266B1 cells
  genes differentially modulated compared to DMSO treated control: 609 genes
OCI-Ly10
  apoptosis of sensitive cell lines: induced apoptosis
IRF4; OCI-Ly3 cells, 1-3 day treatments
  IRF4 levels: neither lenalidomide nor the PKCβ inhibitor had any appreciable effect
IRF4; sensitive cell lines U2932 and OCI-Ly10, treatment for 1-3 days
  IRF4 protein levels: significantly downregulate
[1]; OCI-Ly3 cells
  BCL-10 cleavage: neither the PKCβ inhibitor nor lenalidomide had any effect
[1]; sensitive ABC-DLBCL cell lines OCI-Ly10 and U2932
  MALT1-induced BCL-10 cleavage: inhibited MALT1-induced BCL-10 cleavage in a concentration-dependent manner
OCI-Ly10 DLBCL cells; 3-30 mg/kg po, qdX28, p<0.01
  tumor size: significantly decreased tumor size
OCI-Ly10 DLBCL cells; throughout study
  toxicity based upon mouse weight: No pronounced toxicity
OCI-Ly10 DLBCL cells; treatment for 7 days, p<0.05
  reduction of IRF4 expression and BCL-10 cleavage compared with vehicle control group: 15-35%
